Laboratory results taken from ChEMBL document CHEMBL1139848, “Structure-guided optimization of estrogen receptor binding affinity and antagonist potency of pyrazolopyrimidines with basic side chains” (J Med Chem, 2007).

Assays:
[1] = biological target: T1, Estrogen receptor beta (Homo sapiens, UniProt Q92731); assay: Binding affinity to ERbeta
[2] = biological target: T2, Estrogen receptor (Homo sapiens, UniProt P03372); assay: Binding affinity to ERalpha
T2 sequence (P03372 whole entry): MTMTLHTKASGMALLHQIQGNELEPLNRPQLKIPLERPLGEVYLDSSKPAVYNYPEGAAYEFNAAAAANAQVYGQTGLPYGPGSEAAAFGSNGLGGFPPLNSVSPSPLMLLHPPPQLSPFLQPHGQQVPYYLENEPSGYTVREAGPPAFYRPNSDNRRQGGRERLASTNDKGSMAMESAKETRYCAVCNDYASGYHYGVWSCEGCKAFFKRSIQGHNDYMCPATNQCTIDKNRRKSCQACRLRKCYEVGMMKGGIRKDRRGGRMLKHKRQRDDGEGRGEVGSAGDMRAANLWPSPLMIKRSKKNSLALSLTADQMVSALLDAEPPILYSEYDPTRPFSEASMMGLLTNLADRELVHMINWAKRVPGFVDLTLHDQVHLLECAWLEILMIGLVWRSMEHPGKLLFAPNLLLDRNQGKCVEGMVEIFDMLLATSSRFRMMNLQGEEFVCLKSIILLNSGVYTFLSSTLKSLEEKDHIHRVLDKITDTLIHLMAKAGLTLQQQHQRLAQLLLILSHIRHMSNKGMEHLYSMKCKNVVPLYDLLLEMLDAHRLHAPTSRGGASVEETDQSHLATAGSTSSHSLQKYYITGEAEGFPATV

[3] = biological target: T2, Estrogen receptor; assay: Antagonist potency at ERalpha expressed in human HEC1 cells by luciferase reporter gene assay; assay type: functional, cell-based, HEC-1
[4] = biological target: T1, Estrogen receptor beta; assay: Antagonist potency at ERbeta expressed in human HEC1 cells by luciferase reporter gene assay; assay type: functional, cell-based, HEC-1

T1 sequence (Q92731 whole entry): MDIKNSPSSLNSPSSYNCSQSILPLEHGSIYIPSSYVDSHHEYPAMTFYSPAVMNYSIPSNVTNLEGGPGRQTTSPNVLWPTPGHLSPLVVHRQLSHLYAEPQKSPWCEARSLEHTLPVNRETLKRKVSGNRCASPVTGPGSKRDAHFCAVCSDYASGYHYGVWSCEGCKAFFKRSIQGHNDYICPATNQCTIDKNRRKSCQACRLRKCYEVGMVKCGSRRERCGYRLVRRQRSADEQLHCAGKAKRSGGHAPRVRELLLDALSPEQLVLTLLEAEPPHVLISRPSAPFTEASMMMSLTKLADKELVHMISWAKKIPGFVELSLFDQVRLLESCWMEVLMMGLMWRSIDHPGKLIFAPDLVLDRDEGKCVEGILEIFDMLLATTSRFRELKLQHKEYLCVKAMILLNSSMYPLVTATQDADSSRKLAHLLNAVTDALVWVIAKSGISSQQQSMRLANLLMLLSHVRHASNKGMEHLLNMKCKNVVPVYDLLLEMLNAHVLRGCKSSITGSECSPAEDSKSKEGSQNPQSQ

In the case of `Oc1ccc(-c2nn3cc(O)cnc3c2-c2ccc(O)cc2)cc1`, the Ki [1] is reported as 1520 nM and the Ki [2] is reported as 3330 nM.

Compound `Oc1ccc(-c2nn3c(C(F)(F)F)cc(C(F)(F)F)nc3c2-c2ccccc2)cc1` has a Ki [1] of 122 nM and a Ki [2] of 51 nM.

Compound `Oc1ccc(-c2c(-c3ccccc3)nn3c(C(F)(F)F)cc(C(F)(F)F)nc23)cc1` has a Ki [1] of 139 nM and a Ki [2] of 2220 nM.

Compound `Oc1ccc(-c2nn3c(C(F)(F)F)cc(C(F)(F)F)nc3c2-c2ccc(OCCN3CCCCC3)cc2)cc1` has an IC50 [3] of 90 nM, an IC50 [4] of 40 nM and a Ki [1] of 71 nM. The Ki [2] was 7 nM.

`CN(C)CCOc1ccc(-c2c(-c3ccc(O)cc3)nn3c(C(F)(F)F)cc(C(F)(F)F)nc23)cc1` showed an IC50 [3] of 1000 nM, an IC50 [4] of 250 nM and a Ki [1] of 178 nM. The Ki [2] was 47 nM.

With `CN(C)CCOc1ccc(-c2nn3c(C(F)(F)F)cc(C(F)(F)F)nc3c2-c2ccc(O)cc2)cc1` the Ki [1] was 156 nM and the Ki [2] was 408 nM.

For `Oc1ccc(-c2c(-c3ccc(OCCN4CCCCC4)cc3)nn3c(C(F)(F)F)cc(C(F)(F)F)nc23)cc1`, the Ki [1] was 192 nM and the Ki [2] was 266 nM.

Work on `Oc1ccc(-c2nn3c(C(F)(F)F)cc(C(F)(F)F)nc3c2-c2ccc(O)cc2)cc1` yielded an IC50 [3] of 6000 nM, an IC50 [4] of 600 nM and a Ki [1] of 48 nM. For the same compound, the Ki [2] was 26 nM.
